Assay results from ChEMBL document CHEMBL3352455, “Small molecule disruptors of the glucokinase-glucokinase regulatory protein interaction: 4. Exploration of a novel binding pocket” (J Med Chem, 2014).

Tests used:
[1] = target: T1, Hexokinase-4 (Homo sapiens, UniProt P35557); test: Inhibition of fluorescein-labeled human GK interaction with biotin-labeled human GKRP compound incubated for 20 mins prior to addition of fluorescein-labeled GK measured after 2 to 4 hrs by AlphaScreen assay
T1 sequence (P35557 whole entry): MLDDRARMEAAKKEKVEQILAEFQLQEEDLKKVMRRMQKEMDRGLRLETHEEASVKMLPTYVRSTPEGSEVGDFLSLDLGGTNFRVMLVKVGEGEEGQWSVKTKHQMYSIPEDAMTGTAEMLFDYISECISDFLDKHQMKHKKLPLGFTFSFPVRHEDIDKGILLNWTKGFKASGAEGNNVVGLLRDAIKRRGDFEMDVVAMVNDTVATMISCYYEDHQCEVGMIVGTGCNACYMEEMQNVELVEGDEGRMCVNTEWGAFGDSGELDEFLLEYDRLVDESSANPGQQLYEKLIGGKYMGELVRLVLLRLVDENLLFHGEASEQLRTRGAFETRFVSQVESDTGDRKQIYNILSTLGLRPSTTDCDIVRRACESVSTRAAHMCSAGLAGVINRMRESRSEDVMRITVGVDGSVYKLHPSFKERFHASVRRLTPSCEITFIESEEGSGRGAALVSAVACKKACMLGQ

[2] = Intrinsic clearance in human liver microsomes at 1 uM after 30 mins in presence of NADPH; type: ADME; settings: read-out: CLH
[3] = Intrinsic clearance in rat liver microsomes at 1 uM after 30 mins in presence of NADPH; type: ADME; settings: read-out: CLH

| SMILES | IC50 [1] | microsomal CLint at 1 µM [2] | microsomal CLint at 1 µM [3] |
| --- | --- | --- | --- |
| Nc1ccc(S(=O)(=O)N2CCN(c3ncc(C(O)(C(F)(F)F)C(F)(F)F)cc3-c3ccc(F)cc3)CC2)cn1 | 11 nM | < 14 µL/min/mg | 40 µL/min/mg |
| Nc1ccc(S(=O)(=O)N2CCN(c3ccc(C(O)(C(F)(F)F)C(F)(F)F)cn3)CC2)cn1 | 176 nM | < 14 µL/min/mg | < 14 µL/min/mg |
| Nc1ccc(S(=O)(=O)N2CCN(c3ncc(C(O)(C(F)(F)F)C(F)(F)F)cc3Cl)CC2)cn1 | 201 nM | < 14 µL/min/mg | 26 µL/min/mg |
| Nc1ccc(S(=O)(=O)N2CCN(c3ncc(C(O)(C(F)(F)F)C(F)(F)F)cc3Br)CC2)cn1 | 112 nM | < 14 µL/min/mg | 32 µL/min/mg |
| COc1cc(C(O)(C(F)(F)F)C(F)(F)F)cnc1N1CCN(S(=O)(=O)c2ccc(N)nc2)CC1 | 1110 nM | < 14 µL/min/mg | < 14 µL/min/mg |
| Nc1ccc(S(=O)(=O)N2CCN(c3ncc(C(O)(C(F)(F)F)C(F)(F)F)cc3C3CC3)CC2)cn1 | 601 nM | 38 µL/min/mg | 27 µL/min/mg |
| Nc1ccc(S(=O)(=O)N2CCN(c3ncc(C(O)(C(F)(F)F)C(F)(F)F)cc3C#CC3CC3)CC2)cn1 | 33 nM | < 14 µL/min/mg | 67 µL/min/mg |
| Nc1ccc(S(=O)(=O)N2CCN(c3ncc(C(O)(C(F)(F)F)C(F)(F)F)cc3C#CCO)CC2)cn1 | 14 nM | < 14 µL/min/mg | 65 µL/min/mg |
| COCC#Cc1cc(C(O)(C(F)(F)F)C(F)(F)F)cnc1N1CCN(S(=O)(=O)c2ccc(N)nc2)CC1 | 5 nM | 15 µL/min/mg | 399 µL/min/mg |
| CC(C)(O)C#Cc1cc(C(O)(C(F)(F)F)C(F)(F)F)cnc1N1CCN(S(=O)(=O)c2ccc(N)nc2)CC1 | 49 nM | < 14 µL/min/mg | 16 µL/min/mg |
| Nc1ccc(S(=O)(=O)N2CCN(c3ncc(C(O)(C(F)(F)F)C(F)(F)F)cc3C#CCCO)CC2)cn1 | 17 nM | < 14 µL/min/mg | 68 µL/min/mg |
| Nc1ccc(S(=O)(=O)N2CCN(c3ncc(C(O)(C(F)(F)F)C(F)(F)F)cc3-c3cc[nH]n3)CC2)cn1 | 201 nM | < 14 µL/min/mg | 20 µL/min/mg |
| Cn1cc(-c2cc(C(O)(C(F)(F)F)C(F)(F)F)cnc2N2CCN(S(=O)(=O)c3ccc(N)nc3)CC2)c(C(F)(F)F)n1 | 30000 nM | 50 µL/min/mg | 121 µL/min/mg |
| Nc1ccc(S(=O)(=O)N2CCN(c3ncc(C(O)(C(F)(F)F)C(F)(F)F)cc3-c3ccoc3)CC2)cn1 | 19 nM | < 14 µL/min/mg | 57 µL/min/mg |
| Cc1csc(-c2cc(C(O)(C(F)(F)F)C(F)(F)F)cnc2N2CCN(S(=O)(=O)c3ccc(N)nc3)CC2)c1 | 5 nM | 29 µL/min/mg | 399 µL/min/mg |
| Nc1ccc(S(=O)(=O)N2CCN(c3ncc(C(O)(C(F)(F)F)C(F)(F)F)cc3-c3ccccc3)CC2)cn1 | 7 nM | < 14 µL/min/mg | 49 µL/min/mg |
| Nc1ccc(S(=O)(=O)N2CCN(c3ncc(C(O)(C(F)(F)F)C(F)(F)F)cc3-c3ccccc3F)CC2)cn1 | 7 nM | < 14 µL/min/mg | 47 µL/min/mg |
| Nc1ccc(S(=O)(=O)N2CCN(c3ncc(C(O)(C(F)(F)F)C(F)(F)F)cc3-c3cccc(F)c3)CC2)cn1 | 8 nM | 25 µL/min/mg | 52 µL/min/mg |
| Nc1ccc(S(=O)(=O)N2CCN(c3ncc(C(O)(C(F)(F)F)C(F)(F)F)cc3-c3ccccc3O)CC2)cn1 | 6 nM | 22 µL/min/mg | 125 µL/min/mg |
| CS(=O)(=O)Nc1cccc(-c2cc(C(O)(C(F)(F)F)C(F)(F)F)cnc2N2CCN(S(=O)(=O)c3ccc(N)nc3)CC2)c1 | 309 nM | 40 µL/min/mg | 81 µL/min/mg |

| SMILES | IC50 [1] | microsomal CLint at 1 µM [2] | microsomal CLint at 1 µM [3] |
| --- | --- | --- | --- |
| NC(=O)c1cccc(-c2cc(C(O)(C(F)(F)F)C(F)(F)F)cnc2N2CCN(S(=O)(=O)c3ccc(N)nc3)CC2)c1 | 50 nM | 17 µL/min/mg | 63 µL/min/mg |
| CS(=O)(=O)c1ccc(-c2cc(C(O)(C(F)(F)F)C(F)(F)F)cnc2N2CCN(S(=O)(=O)c3ccc(N)nc3)CC2)cc1 | 42 nM | 32 µL/min/mg | 103 µL/min/mg |
| Nc1ccc(S(=O)(=O)N2CCN(c3ncc(C(O)(C(F)(F)F)C(F)(F)F)cc3-c3ccncc3)CC2)cn1 | 21 nM | 15 µL/min/mg | 31 µL/min/mg |
| Nc1ccc(S(=O)(=O)N2CCN(c3ncc(C(O)(C(F)(F)F)C(F)(F)F)cc3-c3cnccc3F)CC2)cn1 | 24 nM | 17 µL/min/mg | 22 µL/min/mg |
| Nc1ccc(S(=O)(=O)N2CCN(c3ncc(C(O)(C(F)(F)F)C(F)(F)F)cc3-c3cncc(F)c3)CC2)cn1 | 11 nM | 24 µL/min/mg | 19 µL/min/mg |
| Cc1cncc(-c2cc(C(O)(C(F)(F)F)C(F)(F)F)cnc2N2CCN(S(=O)(=O)c3ccc(N)nc3)CC2)c1 | 29 nM | 37 µL/min/mg | 259 µL/min/mg |
| Cc1ccc(-c2cc(C(O)(C(F)(F)F)C(F)(F)F)cnc2N2CCN(S(=O)(=O)c3ccc(N)nc3)CC2)cn1 | 40 nM | 43 µL/min/mg | 182 µL/min/mg |
| COc1ccc(-c2cc(C(O)(C(F)(F)F)C(F)(F)F)cnc2N2CCN(S(=O)(=O)c3ccc(N)nc3)CC2)cn1 | 16 nM | 25 µL/min/mg | 265 µL/min/mg |
| COc1cncc(-c2cc(C(O)(C(F)(F)F)C(F)(F)F)cnc2N2CCN(S(=O)(=O)c3ccc(N)nc3)CC2)c1 | 17 nM | 44 µL/min/mg | 58 µL/min/mg |
| Nc1ccc(S(=O)(=O)N2CCN(c3ncc(C(O)(C(F)(F)F)C(F)(F)F)cc3-c3ccc4sccc4c3)CC2)cn1 | 47 nM | 48 µL/min/mg | 487 µL/min/mg |
| Nc1ccc(S(=O)(=O)N2CCN(c3ncc(C(O)(C(F)(F)F)C(F)(F)F)cc3-c3ccc4scnc4c3)CC2)cn1 | 35 nM | 39 µL/min/mg | 147 µL/min/mg |
| Nc1ccc(S(=O)(=O)N2CCN(c3ncc(C(O)(C(F)(F)F)C(F)(F)F)cc3-c3ccc4ocnc4c3)CC2)cn1 | 20 nM | < 14 µL/min/mg | 120 µL/min/mg |
| Cc1nc2cc(-c3cc(C(O)(C(F)(F)F)C(F)(F)F)cnc3N3CCN(S(=O)(=O)c4ccc(N)nc4)CC3)ccc2o1 | 15 nM | < 14 µL/min/mg | 99 µL/min/mg |
| CN1C(=O)Cc2cc(-c3cc(C(O)(C(F)(F)F)C(F)(F)F)cnc3N3CCN(S(=O)(=O)c4ccc(N)nc4)CC3)ccc21 | 20 nM | 15 µL/min/mg | 221 µL/min/mg |
| Nc1ccc(S(=O)(=O)N2CCN(c3ncc(C(O)(C(F)(F)F)C(F)(F)F)cc3-c3ccc4c(c3)CC(=O)N4)CC2)cn1 | 33 nM | < 14 µL/min/mg | 119 µL/min/mg |
| Nc1ccc(S(=O)(=O)N2CCN(c3ncc(C(O)(C(F)(F)F)C(F)(F)F)cc3-c3ccc4[nH]ncc4c3)CC2)cn1 | 60 nM | 27 µL/min/mg | 88 µL/min/mg |
| Nc1ccc(S(=O)(=O)N2CCN(c3ncc(C(O)(C(F)(F)F)C(F)(F)F)cc3-c3cccc4[nH]ncc34)CC2)cn1 | 1950 nM | 42 µL/min/mg | 93 µL/min/mg |
| Nc1ccc(S(=O)(=O)N2CCN(c3ncc(C(O)(C(F)(F)F)C(F)(F)F)cc3-c3cc4ccccc4[nH]3)CC2)cn1 | 27 nM | < 14 µL/min/mg | 146 µL/min/mg |
| Nc1ccc(S(=O)(=O)N2CCN(c3ncc(C(O)(C(F)(F)F)C(F)(F)F)cc3-c3cc4ccccc4s3)CC2)cn1 | 48 nM | < 14 µL/min/mg | 315 µL/min/mg |
